Where two headings read alike, the source gives them in different places.
How the values were obtained:
human platelets = conditions: cited from earlier work; for inhibition of L-arginine uptake into platelets: 300 μM extracellular concentration, L-arginine 30 μM
migraine aura = conditions: inhalation of small amounts, some cases; cited from earlier work
migraine pains = experiment: Migraine pain with oral L-citrulline; assay type: in vivo, human
Method: […] Their body weight was 59 kg. The subject gave a history of migraine pains with and without aura for about 15 years. Currently, the migraine pains were recurring about once to a few times weekly. Their parent had experienced migraine headaches for many years.
Shortly after the onset of a severe headache attack, the subject ingested 2.7 grams of L-citrulline, followed by another 2.7 grams about 1 hour later.
(§1) Subsequently, the person cited in Example 4 followed an oral regimen of 3.6 grams of L-citrulline daily in two subdoses of 1.8 grams (morning and evening) for seven weeks. The frequency and intensity of the migraine pain episodes were reduced over this interval.

[1] = Tolerability of oral L-citrulline (symptoms, blood count, serum chemistry); assay type: in vivo, human
Excerpt: as §1
(§2) The subject cited in Example 1 and Example 2 above subsequently undertook oral supplementation with 4.5 grams of L-citrulline daily in 2 divided doses (morning and nightly) of 1.8 grams (in 2 capsules) and 2.7 grams (in 3 capsules) for 4 months. They continued their usual food intake. At the end of the 4-month period of supplementation with 4.5 grams daily, […] 9-hour overnight fasting plasma concentration of L-arginine measured at 102.3 μM, assayed in plasma within 30 minutes of venous blood sampling. This increased fasting plasma level contrasted from their lower normal fasting values of 83.0±1.1 μM measured months before, an increment about 20 μM greater.
(§3) The apparent nootropic effects from oral intake of L-citrulline are consistent with the inventive beneficial effects of L-citrulline as exogenous precursor in order to improve brain functions that may be mediated by enhanced L-arginine, creatine, and phosphocreatine stores within the central nervous system.

brain functions = experiment: Mental alertness, intellectual performance and mental fatigue on L-citrulline; assay type: in vivo, human; conditions: 4.5 grams daily, 4 months
Method: as §2, §3

[2] = Plasma ultrafiltrate L-arginine level after oral L-citrulline (colorimetric assay); assay type: in vivo, human
Method: The one FIGURE contains graphs of plasma ultrafiltrate levels of L-arginine in the fasting state (9-10 hours) related to the daily amounts of L-citrulline ingested in two divided doses. Also depicted are levels 2-hours after ingestion of morning doses of L-citmulline (EXAMPLE 1).
A novel colorimetric method for the quantitative assay of free L-arginine in blood plasma was developed. The method measures the color product from monosubstituted guanidines without and with L-arginase incubation to destroy the arginine and the potential guanido color product that would be derived from L-arginine. The photometric decrease in guanido color product measures specifically the concentration of L-arginine. The L-arginine methodology was applied to ultrafiltrates of blood plasma after ultrafiltrations of separated plasma samples were done at 4° Celsius.
Blood plasma levels after 9 to 10 hours of overnight fasting averaged 83.0±1.1 μM (mean±SD of 3 determinations). Two hours after ingestion of 3.0 grams of L-citrulline in capsular form, plasma L-arginine level rose by […] to 132.7 μM. Overnight fasting plasma levels of L-arginine measured 125.2, 98.1, 90.8, 114.2, and 120.0 μM after ingestion of L-citrulline for 6 days at 6.0 grams, for 13 days at 2.4 grams, for 6 days at 3.4 grams, for 7 days at 6.8 grams, and for 2 days at 8.5 grams, respectively, in 2 divided doses (morning and nightly).
as §2

lacunar infarction = experiment: Recurrence of symptomatic lacunar infarction on daily citrulline; assay type: in vivo, human; conditions: 4.5 grams daily in two subdoses for many months
Excerpt: Aspirin in small daily doses is commonly recommended as antiplatelet and antithrombotic agent in cardiovascular disease, particularly for the secondary prevention of coronary artery thrombosis and myocardial infarction, and for cerebrovascular ischemic manifestations such as lacunar infarctions. This subject had experienced, five-years earlier, an acute episodic event of symptomatic lacunar infarction with virtual recovery.

[3] = rat, in vivo; cited from earlier work
[4] = Total forearm bleeding time during oral L-citrulline; assay type: in vivo, human
Method: The same subject that was studied in Example 1 was studied by total bleeding time determinations before and during ingestion of daily doses of L-citrulline, in two divided subdoses. Forearm bleeding times were done by 3 to 5 mm cuts about 1 mm deep made perpendicular to the fold of the elbow during template methodology and a sphygmomanometer cuff maintained near 40 mm Hg pressure. Control bleeding times were 51/2 minutes. Bleeding time rose to 131/2 minutes after 2 days of ingestion of 8.5 grams daily. Bleeding time was prolonged at 13 minutes after 4 weeks of ingestion of 5.4 grams of L-citrulline daily in 2 divided doses.

[5] = in vivo; cited from earlier work
platelet activity = conditions: cited from earlier work; for total bleeding time: low-dose / small therapeutic doses orally, humans
osteoporosis = conditions: oral supplements in large amounts; cited from earlier work
[6] = system: rabbit model of angioplasty; conditions: L-arginine hydrochloride 2.25% in drinking water; cited from earlier work
[7] = cited from earlier work
[8] = system: hypercholesterolemic rabbit models; conditions: sixfold enrichment of dietary L-arginine; cited from earlier work
apoptosis = conditions: L-arginine-deficient (10 μM) environment; cited from earlier work
activated c-NOS = conditions: plasma L-arginine above normal fasting 75 to 90 μM; cited from earlier work
[9] = rat; cited from earlier work
[10] = parenteral injection, rats; cited from earlier work
[11] = system: cortical spreading depression; conditions: rat, in vivo; cited from earlier work
[12] = system: human semen specimens with low motility; conditions: between 1.0 and 4.0 mM, in vitro; cited from earlier work
[13] = system: experimental diabetes mellitus; conditions: long-term oral administration in marked amounts; cited from earlier work
[14] = system: uterine muscle strips from gravid rats; conditions: L-arginine added to extracellular fluid; cited from earlier work
[15] = system: endothelium-dependent vasodilation; conditions: L-arginine infusion, humans with hypercholesterolemia; cited from earlier work
[16] = system: renal vasodilatory responses; conditions: aged compared to young hypertensives; cited from earlier work
[17] = system: spermatocytes of infertile men; conditions: 4 to 20 grams of arginine daily, oral; cited from earlier work
hippocampal brain tissue = conditions: extracellular creatine increased by 3 mM; cited from earlier work
muscle fatigue = conditions: oral daily supplementation, healthy humans; cited from earlier work
[18] = 4-month regimen of 4.5 grams daily

For NCCCC[C@H](N)C(=O)O [L-lysine], the “inhibition of L-arginine uptake into platelets” value (shortened to “inhibition”) (human platelets) is given as “inhibitory”.

In the case of NCCC[C@H](N)C(=O)O [L-ornithine], the “inhibition” value (human platelets) is listed as “inhibitory”.

In the case of CCCCCON=O [amyl nitrite], the migraine aura (migraine aura) is listed as “temporarily reversed migraine aura in some cases”.

In the case of NC(=O)NCCC[C@H](N)C(=O)O [L-citrulline], the “migraine pain intensity and duration” value (migraine pains; 2.7 grams at onset plus 2.7 grams about 1 hour later) is reported as “markedly lessened in intensity and in duration”, the “nausea during migraine attack” value (migraine pains; 2.7 grams plus 2.7 grams about 1 hour later) is reported as “Much less nausea” and the “frequency and intensity of migraine pain episodes” value (migraine pains; 3.6 grams daily in two subdoses, seven weeks) is reported as “reduced”. The adverse side-effects ([1]; 3.6 grams daily for seven weeks, person) was “No adverse side-effects”, the adverse symptoms [1, 18] was “No adverse symptoms” and the “complete blood count and blood serum chemistry tests” value [1, 18] was “remained normal”. The “adverse symptoms or untoward signs” value ([1]; Example 1 study, several weeks) was “No adverse symptoms or untoward signs”, the “mental alertness and intellectual performance” value (brain functions) was “enhanced” and the mental fatigue (brain functions) was “less mental fatigue”. For the same compound, the “increment in fasting plasma L-arginine” value ([2]; 4 months at 4.5 grams daily vs 83.0±1.1 μM before) was “about 20 μM”, the “metabolic adaptation to long-continued supplementation” value ([2]; 4 months, 4.5 grams daily) was “no significant metabolic adaptation” and the “elevation of plasma L-arginine versus equivalent L-arginine or protein meals” value ([2]; comparison with literature) was “more efficient and longer lasting”. For the same compound, the “blood plasma levels of L-arginine after overnight fasting (general statement)” value ([2]; daily dosage in two divided subdoses, 9 to 10 hours fasting) was “greater blood plasma levels of L-arginine even after overnight fasting”, the “blood plasma concentrations of free L-arginine (general statement)” value ([2]; single oral doses of 3.0 grams or more in capsules) was “promptly raised to much higher levels” and the “plasma L-arginine level rise” value ([2]; two hours after 3.0 grams L-citrulline in capsules, person, 102 kg, fasting 83.0±1.1 μM before) was 62.4%. For the same compound, the “recurrence of lacunar infarction” value (lacunar infarction) was “No manifestations of recurrence”, the “liver uptake in portal venous blood” value [3] was “Without appreciable liver uptake” and the bleeding time ([4]; after 2 days of 8.5 grams daily, control 51/2 minutes) was 131/2. For the same compound, the “prolongation of total bleeding time” value ([4]; daily doses of 5.4 grams to 8.5 grams) was “about two-fold” and the blood-brain barrier passage [5] was “readily passes the blood-brain barrier”.

For CC(=O)Oc1ccccc1C(=O)O [aspirin, acetylsalicylic acid], the total bleeding time (platelet activity) is given as “prolonged”, the total bleeding time (platelet activity; listed as acetylsalicylic acid (aspirin)) is given as “prolongs the total bleeding time” and the platelet activity (platelet activity; low-dose intake in humans) is given as “inhibits platelet activity”.

In the case of O=C(O)O [calcium carbonate], the “skeletal bone loss in osteoporosis” value (osteoporosis) is listed as “decreased the skeletal bone loss”.

In the case of Cl.N=C(N)NCCC[C@H](N)C(=O)O [L-arginine hydrochloride], the arterial thickening [6] is listed as “reduced thickening”, the “increase of plasma arginine levels” value [6] is listed as “about 2.6 times” and the “neoendothelium-dependent arterial muscle relaxation” value [6] is listed as “enhanced neoendothelium-dependent arterial muscle relaxation”.

In the case of N=C(N)NCCC[C@H](N)C(=O)O [L-arginine], the “time to return to near fasting values” ([7]; 24.8 grams L-arginine, normal adults) is listed as 3 h, the “peak plasma arginine relative to fasting values” ([7]; 24.8 grams L-arginine, fasting 90±6 μM) is listed as “about 3.6 times” and the plasma citrulline levels ([7]; oral 3-gram single doses of arginine, healthy humans) is listed as “without a change in plasma citrulline levels”. For the same compound, the plasma arginine levels ([7]; oral 3-gram single doses, healthy humans) was “raises plasma arginine levels acutely”, the “time of peak plasma arginine” value ([7]; single protein meal of about 30 to 50 grams (about 1 to 2 grams arginine)) was 2 to 3 h and the “time to return to near fasting levels” value ([7]; single protein meal of about 30 to 50 grams) was 5 to 6 h. The “endothelial adhesiveness and atherogenesis” value [8] was “markedly inhibits endothelial adhesiveness and atherogenesis”, the “increase in plasma arginine levels” value [8] was “twofold increase” and the nitric oxide-dependent vasodilation [8] was “improves nitric oxide-dependent vasodilation”. The protection from apoptosis (apoptosis) was “protects cells from apoptosis”, the “endothelial nitric oxide production” value (activated c-NOS) was “augments endothelial nitric oxide production” and the “brain tissue arginine level relative to plasma levels” value [9] was 20 to 30%. The Km (human platelets; read-out: apparent Km for uptake into human platelets) was 26 ± 4 µM, the “time for plasma and tissue concentrations to return to normal” value [10] was 2 to 3 h and the “oligemic vasoconstriction following cortical spreading depression” value [11] was “reduces the oligemic vasoconstriction”. The sperm motility [12] was “enhances sperm motility in a concentration-dependent manner”, the “glomerular hyperfiltration and abnormal filtration fraction hemodynamics” value [13] was “prevents the glomerular hyperfiltration” and the proteinuria [13] was “ameliorates the proteinuria”. The “muscle relaxation and quiescence” value [14] was “dose-dependent muscle relaxation, and muscle quiescence”, the impaired endothelium-dependent vasodilation [15] was “corrected” and the renal vasodilatory responses [16] was “blunted in aged compared to young hypertensives”. The “total sperm counts and motility rates” value [17] was “may improve total sperm counts and motility rates”.

For NC(=O)CC[C@H](N)C(=O)O [L-glutamine], the “inhibition” value (human platelets) is listed as “inhibitory”.

For CN(CC(=O)O)C(=N)N [creatine], the ATP levels (hippocampal brain tissue) is given as “without change in ATP levels”, the anoxia-induced neuronal damage (hippocampal brain tissue) is given as “attenuated” and the “neurocyte viability after anoxic periods” value (hippocampal brain tissue) is given as “greater neurocyte viabilities”. The “neuronal free creatine and phosphocreatine levels” value (hippocampal brain tissue) was “large increases”, the “muscle fatigue with physical exercise” value (muscle fatigue) was “lessened muscle fatigue” and the “muscle stores of free creatine and phosphocreatine” value (muscle fatigue) was “greater muscle stores”.

Reference: patent US5874471A, “Orthomolecular medical use of L-citrulline for vasoprotection, relaxative smooth muscle tone and cell protection” (priority 1997, dated 1999)
